The results in this text go back to patent US20250179437A1, “L[…] FOR PRODUCING PRIMITIVE STREAK CELLS” (UNIVERSITY HEALTH NETWORK, priority 2023, published 2025).

Type in all cases: cell-based, human
Assay [1] concerns H1 hPSC line. As to the kind of experiment: Differentiation of hPSCs into primitive streak and definitive endoderm with or without Latrunculin A (flow cytometry). The source says:
Human pluripotent stem cell (hPSC) lines: For protocol optimization, the H1 hPSC line^1, purchased from WiCell Research Institute (Madison, USA) was employed. This work has received approval from the Stem Cell Oversight Committee (SCOC) as the focus of a Canadian Institutes of Health Research (CIHR) Canada Graduate Scholarship-Doctoral (CGS-D) award.
hPSC expansion and passage: Cells were cryopreserved in a media composed of 50% IMDM (Life Technologies #12440) or StemMACS iPS-brew XF (Miltenyi Biotec #130-104-368), 40% Fetal Bovine Serum (FBS, Gibco #12483-020), and 10% DMSO (Millipore Sigma #D2650). Cryopreserved hPSCs were thawed in DMEM:F12 (Wisent #319-085-CL) at a ratio of 1 mL cells: 9 mL media, centrifuged at 1000 revolutions per minute (RPM) for 5 minutes, and resuspended in StemMACS iPS-brew XF with 10 μM ROCK1/2 inhibitor (Y-27652, Tocris Biosciences #1254). Cells were maintained in monolayer culture in StemMACS iPS-brew XF media with daily media changes. Upon reaching full confluency, cells were passaged by single cell dissociation using TrypLE (Life Technologies #12605) with 1% DNase 1 mg/mL (Calbiochem 260913), centrifuged for 5 min at 1000 RPM, and resuspended in StemMACS iPS-brew XF with 10 μM ROCK1/2 inhibitor (Y-27652, Tocris Biosciences #1254). Cells were split at a cell line-specific ratio to ensure confluency within 2-3 days, upon which differentiation was initiated.
hPSC differentiation: On day 0, confluent cultures of hPSCs in monolayer format were washed with Calcium- and Magnesium-free dPBS (Corning #20-031-CV) and fed with media with or without Latrunculin A to generate primitive streak (day 1) and definitive endoderm (day 3). The media used at day 0, 1, and 2 are specified in the tables below (Tables 1.1-1.2). When reagents were obtained from suppliers as liquids, the concentration is provided as a percentage of reagent volume/base media volume. When reagents were provided as desiccated powders that required reconstitution, the concentration is specified in either mass or molarity per unit volume of fully reconstituted media. All media were supplemented with 1% vol/vol Gibco Penicillin-Streptomycin (ThermoFisher Scientific #15070063). […]
Dissociated cells in suspension culture were filtered through a 35 micrometer cell strainer, centrifuged, and the supernatant was discarded. […] Cells were analyzed on a BD LSRFortessa flow cytometer. […] Experimental data was analyzed using FlowJo Software (BD).
Cell-surface flow cytometry of hPSC-derived cells: Dissociated cells were directly incubated with directly conjugated primary antibodies (table 1.3) in staining buffer for 20 minutes at room temperature. Cells were then washed once, and resuspended in staining buffer containing 1:100,000 DAPI (Biotium #40043) and directly analyzed by flow cytometry. […]

Assay [2] deals with H1 hPSC line. Put plainly: Differentiation of hPSC-derived definitive endoderm to pancreatic progenitors and beta-like cells (flow cytometry). The source says: (§1) hPSC differentiation: On day 0, confluent cultures of hPSCs in monolayer format were washed with Calcium- and Magnesium-free dPBS (Corning #20-031-CV) and fed with media with or without Latrunculin A to generate primitive streak (day 1) and definitive endoderm (day 3). The media used at day 0, 1, and 2 are specified in the tables below (Tables 1.1-1.2). When reagents were obtained from suppliers as liquids, the concentration is provided as a percentage of reagent volume/base media volume. When reagents were provided as desiccated powders that required reconstitution, the concentration is specified in either mass or molarity per unit volume of fully reconstituted media. All media were supplemented with 1% vol/vol Gibco Penicillin-Streptomycin (ThermoFisher Scientific #15070063).
(§2) Following definitive endoderm formation, cells were treated with differentiation media to generate either pancreatic or lung cells.
In an embodiment, the method comprises steps for differentiate the endodermal cell population to pancreatic cells. For example, as described herein differentiation from a an endodermal cell at day 3 differentiation to pancreatic lineages involves a series of steps that will differentiate cells to pancreatic progenitors cells at day 12-13 as described by Nostro et al 2015^2 or Yung and Poon 2019^3 and endocrine cells from day 20 onwards as described by Rezania et al 20144, Pagliuca et al., 2014^5, Hogrebe et al. 2020^6 or Balboa et al., 2022^7, where typically stage 1 is known to generate definitive endoderm, stage 4 is known to generate pancreatic progenitors and stage 6 is known to generate islet-like cells. Stage 2 can span for example 2 to 3 days and stage 3 can span for example 1 to 4 days. Stage 2 for example can include contacting the population to be differentiated (e.g. the Stage 1 endoderm cells) with Fibroblast Growth Factor 10 (FGF10), optionally wingless-type MMTV integration site family member 3A (Wnt3a), optionally Retinoic acid (RA), optionally Activin A, and optionally Dorsomorphin to produce Stage 2 differentiated cells. […]
(In general: A flow cytometer gives signals particle by particle.)

Assay [3] deals with H1 hPSC line. Put plainly: Differentiation of hPSC-derived definitive endoderm to NKX2-1+ lung progenitors (flow cytometry, immunofluorescence). Particulars: vs definitive endoderm generated in the absence of LatA.
Source text: as §1, §2
In an embodiment, the method comprises steps for differentiate the endodermal cell population to lung cells. […]
Dissociated cells in suspension culture were filtered through a 35 micrometer cell strainer, centrifuged, and the supernatant was discarded. […] Cells were analyzed on a BD LSRFortessa flow cytometer. […] Experimental data was analyzed using FlowJo Software (BD). […]

Where [4] appears, read: day 13, vs control without LatA.

For `C/C1=C/C(=O)O[C@@H]2C[C@@H](CC[C@H](C)/C=C\C=C\CC1)O[C@@](O)([C@@H]1CSC(=O)N1)C2` [Latrunculin A], in the assay on H1 hPSC line [1] (Latrunculin A-treated hPSCs), the “efficiency of primitive streak cell generation” value is “high efficiencies”. In addition, the “BRA+ primitive streak cells generated” value in the assay on H1 hPSC line [1] (high-density hPSCs, MEF-free, LatA at day 0, 24 hours after starting differentiation) is listed as “nearly pure populations”. Further, the “frequency of FOXA2+SOX17+ definitive endoderm (DE)-like cells” value in the assay on H1 hPSC line [1] (high-density hPSCs, day 3 of differentiation, vs control without LatA) is given as “significantly higher frequencies”. Moreover, the “impairment of high-density cells in their ability to generate BRA+ cells” value in the assay with H1 hPSC line [1] (high-density vs low-density hPSCs, LatA treatment at day 0) is reported as “completely abrogated”. Further, in the assay with H1 hPSC line [2] (setting [4]), the “PDX1−NKX6-1− cells” value is on record as “greatly reduced” and the “frequency of PDX1+NKX6.1+ hPSC-derived pancreatic progenitors” value was “greater frequency”. Besides, the “frequency of NKX6-1+CPEP+ beta-like cells” value in the assay with H1 hPSC line [2] (day 23 of differentiation, vs control protocol) was “greater frequency”. Also, in the assay with H1 hPSC line [3], the “frequency of NKX2-1+ lung progenitors” value is recorded as “much higher frequencies”.
